The values that follow are results of earlier work, collected in patent publication US12060328B2, “Co-crystals or salts of psilocybin and methods of treatment therewith” (RESET PHARMACEUTICALS, INC., priority 2022, dated 2024).

The conditions of this data set: cited from earlier work; for pKa (acidic) / pKa (basic): co-former property, Table 1.

As to `NC(CS)C(=O)O` (racemic) [DL-cysteine], the “pKa (acidic)” value is on record as 1.71 and the “pKa (basic)” value is 8.33. As for `OC[C@@H](O)[C@@H](O)[C@H](O)[C@H](O)CO` [D-mannitol], the “pKa (acidic)” value is 13.50. Regarding `O=C1CC[C@@H](C(=O)O)N1` [L-pyroglutamic acid], the “pKa (acidic)” value is reported as 3.48. In the case of `O=C(O)[C@H](O)[C@@H](O)[C@H](O)[C@H](O)CO` [gluconic acid], the “pKa (acidic)” value was 3.6. For the molecule `NC(=O)c1ccncc1` [isonicotinamide], the “pKa (basic)” value is recorded as 3.61. As to `OC[C@@H](O)[C@@H](O)CO` [meso-erythritol], the “pKa (acidic)” value is 13.90. For the molecule `CCCOC(=O)c1cc(O)c(O)c(O)c1` [propyl 3,4,5-trihydroxybenzoate], the “pKa (acidic)” value was 7.94.

`CN(C)CCc1c[nH]c2cccc(OP(=O)(O)O)c12` [psilocybin, [3-(2-dimethylaminoethyl)-1H-indol-4-yl]dihydrogen phosphate]: for the setting “reported value, estimated”, the “pKa3 (tertiary amine) (estimated)” value is 10.4. Under “reported value”, the “pKa1 (1st phosphate oxygen)” value is 1.3 and the “pKa2 (2nd phosphate oxygen)” value is 6.5. Regarding `Cn1c(=O)c2[nH]cnc2n(C)c1=O` [theophylline], the “pKa (acidic)” value was 8.81. Regarding `NC(CO)(CO)CO` [tromethamine], the “pKa (basic)” value is reported as 8.95. `NC(N)=O` [urea]: the “pKa (basic)” value is listed as 0.10.
